These results are taken from US11999728B2, “Estrogen receptor modulators” (Recurium IP Holdings, LLC, priority 2020, dated 2024).

One data set deals with MCF7. Nature of the data set: Breast Cancer Cell Proliferation Assay (MCF-7), Cell Titer-Glo. The data set is classed as cell-based. The note with it: Homo sapiens, MCF7, 120 h, MCF7 cells, 5 days of compound exposure. The method, boiled down:
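MCF7 cells in phenol red-free DMEM/F12 with charcoal-stripped FBS exposed 5 days to 10-point dilutions (10–0.000005 μM final), 17β-estradiol as control. Viability by CellTiter-Glo luminescence, background-subtracted and expressed relative to estrogen-only treated cells; day-1 pretreatment wells plated.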
In general terms: ATP-based viability assays read luminescence as a measure of living cells.

A short description of data set [1]: Pharmacokinetic Determination (Mouse PK). The data set is classed as in vivo, female CD-1 mice. To be noted: female; for Kp at 2 h: CD-1, PO 10.0 mg/kg, Brain concentration vs plasma concentration at 2 hours post dosing, read-out: B/P ratio; for AUC(0-t) / Cmax / Tmax / half-life / clearance / bioavailability / Vd: CD-1, plasma; for bioavailability: PO 10.0 mg/kg vs IV 3.0 mg/kg; for Vd: read-out: Vdss. How it is done: Pharmacokinetic Determination
Grouping female CD-1 mice weighing 20-30 g randomly to three groups; one group was administered with test compound at a dose of 3.0 mg/kg by intravenous injection, the other two groups were administered with test compound at a dose of 10.0 mg/kg by oral. The formulation for IV groups is DMSO/PEG400/30% HP-β-CD (5/20/75) and the formulation for PO groups is 25% HP-β-CD in 25 mM citrate buffer (pH3.0). After administering, blood samples of intravenous injection group were collected at time points of predose, 0.0833, 0.25, 0.5, 1, 2, 4, 8, 12 and 24 h; blood samples of oral group were collected at time points of predose, 0.25, 0.5, 1, 2, 4, 8, 12, and 24 h. Both blood samples and brain samples were collected at 2 hours post dosing for the second PO group. Standard curve was plotted based on concentrations of the samples in a suitable range, the concentrations of test compounds in plasma samples and brain samples were determined by using LC-MS/MS. Pharmacokinetic parameters were calculated according to drug concentration-time curve using a noncompartmental method by WinNonLin (Phoenix™, version 6.1) or other similar software.

The subject of data set [2] is MCF-7 Human Breast Cancer Orthotopic Model. Nature of the data set: Efficacy Study on MCF-7 Human Breast Cancer Orthotopic Model (tumor growth inhibition). The data set is classed as in vivo, mouse. To be noted: tumor growth inhibition = (1−(Td−T0)/(Cd−C0))×100%; MCF-7 orthotopic model. How it is done: Efficacy Study on MCF-7 Human Breast Cancer Orthotopic Model
The MCF-7 tumor cell line were maintained in vitro as monolayer culture in DMEM Medium supplemented with 15% heat inactivated fetal bovine serum at 37° C. in an atmosphere of 5% CO2 in air. The medium were renewed every 2 to 3 days and tumor cells were routinely subcultured at a confluence of 80%-90% by trypsin-EDTA, not to exceed 4-5 passages. The cells growing in an exponential growth phase were harvested and counted for tumor inoculation.
Each mouse was inoculated subcutaneously on the 2nd right mammary fat pad with the single cell suspension of 95% viable tumor cells (1.5×10^7) in 200 μL DMEM Matrigel mixture (1:1 ratio) without serum for the tumor development. The treatments were started when mean tumor size reached 195 mm^3.
The measurement of tumor size was conducted twice a week with a caliper and the tumor volume (mm^3) was estimated using the formula: TV=a×b^2/2 throughout the study, where “a” and “b” was long and short diameters of a tumor, respectively. The TVs were used for calculation of the tumor growth inhibition (TGI, an indicator of antitumor effectiveness) value using the formula: (1−(Td−T0)/(Cd−C0))×100%. Td and Cd are the mean tumor volumes of the treated and control animals, and T0 and C0 are the mean tumor volumes of the treated and control animals at the start of the experiment. The tumor regression was defined as individual tumor volume decrease (terminal TV compares to initial TV). The percent tumor regression was calculated using the formula: (1−(Td/T0))×100%.

Data set [3] is described as follows: Plasma and tumor PK analysis post final dosing in MCF-7 orthotopic model. The data set is classed as in vivo, mouse. To be noted: MCF-7 orthotopic model mice; for Tumor AUC: tumor samples 2 h, 8 h and 24 h post final dosing; for AUC / Kp: mouse; for AUC: plasma, post final dosing, 0.25-24 h; for Kp: tumor AUC vs plasma AUC, read-out: Tumor/Plasma ratio. How it is done: Plasma samples were collected with seven time points (0.25 h, 0.5 h, 1 h, 2 h, 4 h, 8 h, and 24 h) post final dosing for PK analysis. Tumor samples were collected with three time points (2 h, 8 h and 24 h) post final dosing for PK analysis.

Molecules are shown by their SMILES.

Consider `C[C@@H]1Cc2c([nH]c3ccccc23)[C@@H](c2c(F)cc(NC3CN(CCCF)C3)cc2F)N1CC(F)(F)CO` [GDC9545, reference compound], for which the IC50 in the data set with MCF7 is ≤ 25 nM. The Kp at 2 h in data set [1] came to 0.17. Also, in data set [1] (PO, 10.0 mg/kg), the AUC(0-t) was 13.3 µM·h, the Cmax is 960 nM, the Tmax came to 4 h and the half-life was 8.66 h. Moreover, the TGI in data set [2] was found to be 130%. In data set [3], the “Tumor AUC” value is 183743 ng·h/mL, the area under the curve (AUC) was 10500 ng·h/mL and the Kp worked out at 17.5.
Consider `C[C@@H]1Cc2c([nH]c3ccccc23)[C@@H](c2ccc(N[C@H]3CCN(CCCF)C3)cc2)N1C12CC(C1)C2` [Compound 42, (S)—N-(4-((1R,3R)-2-(bicyclo[1.1.1]pentan-1-yl)-3-methyl-2,3,4,9-tetrahydro-1H-pyrido[3,4-b]indol-1-yl)phenyl)-1-(3-fluoropropyl)pyrrolidin-3-amine], for which the IC50 with MCF7 was ≤ 25 nM. Besides, in data set [1], the Kp at 2 h came out at 29.4 and the bioavailability amounted to 55.4%. In data set [1] (IV, 3.0 mg/kg), this molecule yielded an AUC(0-t) of 1.51 µM·h and a clearance of 40 mL/min/kg. In data set [1] (PO, 10.0 mg/kg), the AUC(0-t) came to 2.79 µM·h, the Cmax was found to be 220 nM and the Tmax was found to be 1 h. For the same molecule, in data set [2], the TGI was found to be 106%. Also, in data set [3], the “Tumor AUC” value is 296719 ng·h/mL, the exposure (AUC) is 5310 ng·h/mL and the Kp was 55.9.
With `C[C@@H]1Cc2c([nH]c3ccccc23)[C@@H](c2ccc(NC3CN(CCCF)C3)cc2)N1C12CC(CO)(C1)C2` (single isomer, unassigned) [Compound 58], the IC50 in the data set on MCF7 is ≤ 25 nM. Moreover, in data set [1] (IV, 3.0 mg/kg), the AUC(0-t) is 1.04 µM·h, the clearance came out at 92 mL/min/kg, the half-life is 7.08 h and the Vd amounted to 42.3 L/kg. This molecule registered a bioavailability in data set [1] of 31.8%. In data set [1] (PO, 10.0 mg/kg), the AUC(0-t) was 1.1 µM·h, the concentration peaked (Cmax) at 80 nM, the Tmax amounted to 2 h and the half-life was 5.56 h.
For `C[C@@H]1Cc2c([nH]c3ccccc23)[C@@H](c2ccc(NC3CN(CCCF)C3)cc2F)N1C12CC(C1)C2` [Compound 15, N-(4-((1R,3R)-2-(bicyclo[1.1.1]pentan-1-yl)-3-methyl-2,3,4,9-tetrahydro-1H-pyrido[3,4-b]indol-1-yl)-3-fluorophenyl)-1-(3-fluoropropyl)azetidin-3-amine], the IC50 in the data set on MCF7 is ≤ 25 nM. In addition, in data set [1], the Kp at 2 h is 10.8 and the bioavailability turned out to be 47.3%. Also, in data set [1] (IV, 3.0 mg/kg), the AUC(0-t) worked out at 0.892 µM·h, the clearance amounted to 100 mL/min/kg, the half-life is 10 h and the Vd is 66.4 L/kg. For the same molecule, in data set [1] (PO, 10.0 mg/kg), the area under the curve AUC(0-t) stood at 1.45 µM·h, the Cmax came out at 200 nM, the Tmax was determined as 1 h and the half-life is 9.2 h.
Regarding `CCCN1CC(Oc2ccc([C@@H]3c4[nH]c5ccccc5c4C[C@@H](C)N3C34CC(C3)C4)cc2)C1` [Compound 39, (1R,3R)-2-(bicyclo[1.1.1]pentan-1-yl)-3-methyl-1-(4-((1-propylazetidin-3-yl)oxy)phenyl)-2,3,4,9-tetrahydro-1H-pyrido[3,4-b]indole], the IC50 with MCF7 is ≤ 25 nM. For the same molecule, in data set [1], the Kp at 2 h turned out to be 11.4 and the bioavailability was determined as 29.6%. Further, in data set [1] (IV, 3.0 mg/kg), the AUC(0-t) worked out at 1.33 µM·h, the clearance was determined as 85 mL/min/kg, the half-life was 5.13 h and the Vd came to 16 L/kg. In addition, in data set [1] (PO, 10.0 mg/kg), the AUC(0-t) worked out at 1.31 µM·h, the highest level (Cmax) was 224 nM, the Tmax is 0.5 h and the half-life was 3.95 h.
For `CCCN1CC(Nc2ccc([C@@H]3c4[nH]c5ccccc5c4C[C@@H](C)N3C34CC(C3)C4)cc2)C1` [Compound 31, N-(4-((1R,3R)-2-(bicyclo[1.1.1]pentan-1-yl)-3-methyl-2,3,4,9-tetrahydro-1H-pyrido[3,4-b]indol-1-yl)phenyl)-1-propylazetidin-3-amine], the IC50 in the data set with MCF7 was ≤ 25 nM. In addition, in data set [1], the Kp at 2 h came out at 12 and the bioavailability is 87.7%. In data set [1] (IV, 3.0 mg/kg), this molecule gave an AUC(0-t) of 1.03 µM·h. In data set [1] (PO, 10.0 mg/kg), the AUC(0-t) amounted to 3 µM·h, the Cmax came out at 240 nM and the Tmax came out at 2 h. In data set [2], the TGI was 106%. Also, in data set [3], the “Tumor AUC” value came to 360399 ng·h/mL, the AUC was found to be 6780 ng·h/mL and the Kp stood at 53.1.
Consider `C[C@@H]1Cc2c([nH]c3ccccc23)[C@@H](c2c(F)cc(N[C@H]3CCN(CCCF)C3)cc2F)N1C12CC(CO)(C1)C2` (single isomer, unassigned) [Compound 70], for which, in the data set with MCF7, the IC50 is ≤ 25 nM. Besides, in data set [1] (IV, 3.0 mg/kg), the AUC(0-t) came to 2.46 µM·h, the clearance came out at 36.1 mL/min/kg, the half-life is 6.51 h and the Vd was 12.2 L/kg. The same molecule came in with a bioavailability in data set [1] of 21.4%. Further, in data set [1] (PO, 10.0 mg/kg), the AUC(0-t) was determined as 2.09 µM·h, the Cmax was 210 nM, the Tmax is 2 h and the half-life is 5.25 h.
For the molecule `C[C@@H]1Cc2c([nH]c3ccccc23)[C@@H](c2ccc(NC3CN(CCCF)C3)nc2)N1C12CC(C1)C2` [Compound 21, 5-((1R,3R)-2-(bicyclo[1.1.1]pentan-1-yl)-3-methyl-2,3,4,9-tetrahydro-1H-pyrido[3,4-b]indol-1-yl)-N-(1-(3-fluoropropyl)azetidin-3-yl)pyridin-2-amine], the IC50 in the data set on MCF7 is > 250 nM. Also, in data set [1] (IV, 3.0 mg/kg), the AUC(0-t) worked out at 0.59 µM·h. For the same molecule, the bioavailability in data set [1] is 5.03%. Also, in data set [1] (PO, 10.0 mg/kg), the AUC(0-t) is 0.1 µM·h, the Cmax came to 60 nM, the time to peak (Tmax) stood at 0.25 h and the half-life was 1.01 h.
As for `C[C@@H]1Cc2c([nH]c3ccccc23)[C@@H](c2c(F)cc(N[C@H]3CCN(CCCF)C3)cc2F)N1C12CC(C1)C2` [Compound 19, (S)—N-(4-((1R,3R)-2-(bicyclo[1.1.1]pentan-1-yl)-3-methyl-2,3,4,9-tetrahydro-1H-pyrido[3,4-b]indol-1-yl)-3,5-difluorophenyl)-1-(3-fluoropropyl)pyrrolidin-3-amine], in the data set with MCF7, the IC50 was ≤ 25 nM. In data set [1], the Kp at 2 h was 12.3 and the bioavailability was 69.8%. Also, in data set [1] (IV, 3.0 mg/kg), the AUC(0-t) amounted to 2.15 µM·h, the clearance stood at 47.6 mL/min/kg, the half-life is 6.58 h and the Vd came to 23.2 L/kg. In data set [1] (PO, 10.0 mg/kg), the AUC(0-t) amounted to 5 µM·h, the Cmax was 440 nM, the Tmax was 1 h and the half-life was 8.5 h.
Consider `C[C@@H]1Cc2c([nH]c3ccccc23)[C@@H](c2ccc(O[C@H]3CCN(CCCF)C3)nc2)N1C12CC(C1)C2` (single isomer, unassigned) [Compound 10], for which the IC50 in the data set with MCF7 was ≤ 25 nM. In data set [1], the Kp at 2 h is 7.51 and the bioavailability is 15.3%. For the same molecule, in data set [1] (IV, 3.0 mg/kg), the AUC(0-t) stood at 1.03 µM·h, the clearance is 101 mL/min/kg, the half-life is 2.19 h and the Vd came to 12.8 L/kg. Further, in data set [1] (PO, 10.0 mg/kg), the AUC(0-t) turned out to be 0.527 µM·h, the Cmax stood at 178 nM, the Tmax was 0.5 h and the half-life was 2.12 h.

What is called IC50 is the concentration needed to halve the response being measured. A lower IC50 goes with greater potency. Usually AUC(0-t) stands for exposure summed from dosing to a finite time, without extrapolation to infinity. A high value points to more exposure. Broadly, the Cmax is the highest concentration seen after dosing. A word on the Tmax: it is the time at which the peak concentration occurs. What is called half-life is the time in which the quantity being followed falls by half. Higher therefore signals slow loss. For orientation: AUC means the area under the concentration-time curve, a measure of exposure. A lower AUC goes with less exposure. What is called clearance is a measure of how efficiently the substance is removed, as volume per time. High values mean efficient removal, low ones inefficient removal. As a reminder, the bioavailability is dose-corrected exposure relative to a reference, in per cent. A lower bioavailability goes with little systemic uptake.
